In US20230107642A1 (Erasca, Inc., priority 2020, published 2023):

Target: T1, K-Ras G12C (Homo sapiens, UniProt P01116, G12C)
T1 construct: This protein contained 188 amino acids in total, including an N-terminal 6-Histidine tag; made in house; host or cells: E. coli BL21
Assay: CAF assay (% CAF; method in Example 7, not in this part)
Assay type: binding
Settings: for % CAF 10 uM @ 60 min: Table 2a

Row | Structure (SMILES) | % CAF @ 10 uM, 1h (10 uM, 1 h, Table 3) | other results
1 | C=CC(=O)N1[C@H](C)CN(c2nc(=O)n3c4c(c(-c5ccc(F)cc5F)c(C(F)(F)F)cc24)SC[C@@H]3CN2CCC3(CC2)COC3)C[C@@H]1C (atropisomer, axis not shown) [Example 576, (3S,10S)-3-(2-oxa-7-azaspiro[3.5]nonan-7-ylmethyl)-7-((3S,5R)-4-acryloyl-3,5-dimethylpiperazin-1-yl)-10-(2,4-difluorophenyl)-9-(trifluoromethyl)-2H-[1,4]thiazino[2,3,4-ij]quinazolin-5(3H)-one] |  | % CAF @ 10 uM, 1h (10 uM compound, 1 h incubation): 80.5%
2 | C=CC(=O)N1[C@H](C)CN(c2nc(=O)n3c4c(c(-c5ccc(F)cc5F)c(C(F)(F)F)cc24)SC[C@@H]3CN2CCC3(CC2)COC3)C[C@@H]1C (atropisomer, axis not shown) [Example 577, (3S)-3-(2-oxa-7-azaspiro[3.5]nonan-7-ylmethyl)-7-((3S,5R)-4-acryloyl-3,5-dimethylpiperazin-1-yl)-10-(2,4-difluorophenyl)-9-(trifluoromethyl)-2H-[1,4]thiazino[2,3,4-ij]quinazolin-5(3H)-one] |  | % CAF @ 10 uM, 1h (10 uM compound, 1 h incubation): 74.8%
3 | C=CC(=O)N1CCN(c2nc(=O)n3c4c(c(-c5ccc(F)cc5F)c(C(F)(F)F)cc24)SC[C@@H]3COC)CC1 (atropisomer, axis not shown) [Example 578, (3S,10R)-7-(4-acryloylpiperazin-1-yl)-10-(2,4-difluorophenyl)-3-(methoxymethyl)-9-(trifluoromethyl)-2,3-dihydro-5H-[1,4]thiazino[2,3,4-ij]quinazolin-5-one] |  | % CAF @ 10 uM, 1h (10 uM compound, 1 h incubation): 98%
4 | C=CC(=O)N1CCN(c2nc(=O)n3c4c(c(-c5ccc(F)cc5F)c(C(F)(F)F)cc24)SC[C@@H]3COC)CC1 (atropisomer, axis not shown) [Example 579, (3S,10S)-7-(4-acryloylpiperazin-1-yl)-10-(2,4-difluorophenyl)-3-(methoxymethyl)-9-(trifluoromethyl)-2,3-dihydro-5H-[1,4]thiazino[2,3,4-ij]quinazolin-5-one] |  | % CAF @ 10 uM, 1h (10 uM compound, 1 h incubation): 96.9%
5 | C=CC(=O)N1C[C@H](C)N(c2nc(=O)n3c4c(c(-c5ccc(F)cc5F)c(C(F)(F)F)cc24)SC[C@@H]3CN2CCN(C3CC3)CC2)C[C@H]1C (single isomer, unassigned) [Example 580] |  | % CAF @ 10 uM, 1h (10 uM compound, 1 h incubation): 91.5%
6 | C=CC(=O)N1C[C@H](C)N(c2nc(=O)n3c4c(c(-c5ccc(F)cc5F)c(C(F)(F)F)cc24)SC[C@@H]3CN2CCN(C3CC3)CC2)C[C@H]1C (single isomer, unassigned) [Example 581] |  | % CAF @ 10 uM, 1h (10 uM compound, 1 h incubation): 97.4%
7 | C=CC(=O)N1CCN(c2nc(=O)n3c4c(c(-c5ccc(F)cc5F)c(C(F)(F)F)cc24)SC[C@@H]3CN2CCN(CC(F)F)CC2)[C@@H](C)C1 [Example 19, (3S)-7-((S)-4-acryloyl-2-methylpiperazin-1-yl)-3-((4-(2,2-difluoroethyl)piperazin-1-yl)methyl)-10-(2,4-difluorophenyl)-9-(trifluoromethyl)-2H-[1,4]thiazino[2,3,4-ij]quinazolin-5(3H)-one] |  | % CAF @ 10 μM, 1 h (10 μM, 1 h, Table 4): 96%
8 | C=CC(=O)N1CCN(c2nc(=O)n3c4c(c(-c5cc(C6CC6)ccc5F)c(Cl)cc24)SCC3)[C@@H](C)C1 [Example 62a, 7-((S)-4-acryloyl-2-methylpiperazin-1-yl)-9-chloro-10-(5-cyclopropyl-2-fluorophenyl)-2,3-dihydro-5H-[1,4]thiazino[2,3,4-ij]quinazolin-5-one] |  | % CAF 10 uM @ 60 min (10 uM): 67%
9 | C[C@H]1CN(C(=O)/C=C/C(F)F)CCN1c1nc(=O)n2c3c(c(-c4cc(F)cc(Cl)c4)c(Cl)cc13)SCC2 [Example 63, (S,E)-9-chloro-10-(3-chloro-5-fluorophenyl)-7-(4-(4,4-difluorobut-2-enoyl)-2-methylpiperazin-1-yl)-2,3-dihydro-5H-[1,4]thiazino[2,3,4-ij]quinazolin-5-one] | 67% | % CAF 10 uM @ 60 min (10 uM): 75%
10 | C=C(F)C(=O)N1CCN(c2nc(=O)n3c4c(c(-c5cc(F)cc(Cl)c5)c(Cl)cc24)SCC3)[C@@H](C)C1 [Example 64, (S)-9-chloro-10-(3-chloro-5-fluorophenyl)-7-(4-(2-fluoroacryloyl)-2-methylpiperazin-1-yl)-2,3-dihydro-5H-[1,4]thiazino[2,3,4-ij]quinazolin-5-one] | 75% | % CAF 10 uM @ 60 min (10 uM): 3%
11 | C[C@H]1CN(C(=O)/C=C/C(F)(F)F)CCN1c1nc(=O)n2c3c(c(-c4cc(F)cc(Cl)c4)c(Cl)cc13)SCC2 [Example 65] | 3% | % CAF 10 uM @ 60 min (10 uM): 70%
12 | C=CC(=O)N1CCN(c2nc(=O)n3c4c(c(-c5cc(F)cc(F)c5)c(Cl)cc24)SCC3)[C@@H](C)C1 [Example 66, (S)-7-(4-acryloyl-2-methylpiperazin-1-yl)-9-chloro-10-(3,5-difluorophenyl)-2,3-dihydro-5H-[1,4]thiazino[2,3,4-ij]quinazolin-5-one] | 70% | % CAF 10 uM @ 60 min (10 uM): 91%
13 | C[C@H]1CN(C(=O)/C=C/C(F)F)CCN1c1nc(=O)n2c3c(c(-c4cc(F)cc(F)c4)c(Cl)cc13)SCC2 [Example 67, (S,E)-9-chloro-7-(4-(4,4-difluorobut-2-enoyl)-2-methylpiperazin-1-yl)-10-(3,5-difluorophenyl)-2,3-dihydro-5H-[1,4]thiazino[2,3,4-ij]quinazolin-5-one] | 91% | % CAF 10 uM @ 60 min (10 uM): 87%
14 | C=CC(=O)N1CCN(c2nc(=O)n3c4c(c(-c5ccc(F)cc5)c(Cl)cc24)SC[C@H]3CC2CCN(CC(F)F)CC2)[C@@H](C)C1 [Example 68, (R)-7-((S)-4-acryloyl-2-methylpiperazin-1-yl)-9-chloro-3-((1-(2,2-difluoroethyl)piperidin-4-yl)methyl)-10-(4-fluorophenyl)-2,3-dihydro-5H-[1,4]thiazino[2,3,4-ij]quinazolin-5-one] | 87% | 
15 | C=CC(=O)N1CCN(c2nc(=O)n3c4c(c(-c5ccc(F)cc5F)c(Cl)cc24)SC[C@H]3CC2CCN(CC(F)F)CC2)[C@@H](C)C1 [Example 69, (3R)-7-((S)-4-acryloyl-2-methylpiperazin-1-yl)-9-chloro-3-((1-(2,2-difluoroethyl)piperidin-4-yl)methyl)-10-(2,4-difluorophenyl)-2,3-dihydro-5H-[1,4]thiazino[2,3,4-ij]quinazolin-5-one] | 96% | 
16 | C=CC(=O)N1CCN(c2nc(=O)n3c4c(c(-c5cccc6ccncc56)c(Cl)cc24)SCC3)[C@@H](C)C1 [Example 71, 7-((S)-4-acryloyl-2-methylpiperazin-1-yl)-9-chloro-10-(isoquinolin-8-yl)-2,3-dihydro-5H-[1,4]thiazino[2,3,4-ij]quinazolin-5-one] | 87.8% | 
17 | C=CC(=O)N1C2CN(C(C)=O)CC1CN(c1nc(=O)n3c4c(c(-c5ccc(F)cc5F)c(Cl)cc14)SCC3)C2 [Example 72] | 80.5% | 
18 | C=CC(=O)N1CCN(c2nc(=O)n3c4c(c(-c5cc(F)cc(Cl)c5)c(Cl)cc24)SCC3)[C@@H](C)C1 [Example 73, (S)-7-(4-acryloyl-2-methylpiperazin-1-yl)-9-chloro-10-(3-chloro-5-fluorophenyl)-2,3-dihydro-5H-[1,4]thiazino[2,3,4-ij]quinazolin-5-one] | 73% | 
19 | C=CC(=O)N1CCN(c2nc(=O)n3c4c(c(-c5cccc(F)c5F)c(Cl)cc24)SCC3)[C@@H](C)C1 [Example 74, 7-((S)-4-acryloyl-2-methylpiperazin-1-yl)-9-chloro-10-(2,3-difluorophenyl)-2,3-dihydro-5H-[1,4]thiazino[2,3,4-ij]quinazolin-5-one] | 95.6% | 
20 | C=CC(=O)N1CCN(c2nc(=O)n3c4c(c(-c5ccc(F)cc5F)c(Cl)cc24)SC(C)(C)C3)[C@@H](C)C1 [Example 75, 7-((S)-4-acryloyl-2-methylpiperazin-1-yl)-9-chloro-10-(2,4-difluorophenyl)-2,2-dimethyl-2,3-dihydro-5H-[1,4]thiazino[2,3,4-ij]quinazolin-5-one] | 86.8% | 
21 | C=CC(=O)N1CCN(c2nc(=O)n3c4c(c(-c5ccc(F)cc5F)c(Cl)cc24)SCC3)C[C@H]1C#N [Example 77, (2S)-1-acryloyl-4-(9-chloro-10-(2,4-difluorophenyl)-5-oxo-2,3-dihydro-5H-[1,4]thiazino[2,3,4-ij]quinazolin-7-yl)piperazine-2-carbonitrile] | 82% | 
22 | C=C(F)C(=O)N1CCN(c2nc(=O)n3c4c(c(-c5ccc(Cl)c(F)c5)c(Cl)cc24)SCC3)[C@@H](C)C1 [Example 78, (S)-9-chloro-10-(4-chloro-3-fluorophenyl)-7-(4-(2-fluoroacryloyl)-2-methylpiperazin-1-yl)-2,3-dihydro-5H-[1,4]thiazino[2,3,4-ij]quinazolin-3-one] | 6.7% | 
23 | C[C@H]1CN(C(=O)/C=C/C(F)(F)F)CCN1c1nc(=O)n2c3c(c(-c4ccc(Cl)c(F)c4)c(Cl)cc13)SCC2 [Example 79, (S,E)-9-chloro-10-(4-chloro-3-fluorophenyl)-7-(2-methyl-4-(4,4,4-trifluorobut-2-enoyl)piperazin-1-yl)-2,3-dihydro-5H-[1,4]thiazino[2,3,4-ij]quinazolin-5-one] | 92% | 
24 | C[C@H]1CN(C(=O)/C=C/C(F)F)CCN1c1nc(=O)n2c3c(c(-c4ccc(Cl)c(F)c4)c(Cl)cc13)SCC2 [Example 80, (S,E)-9-chloro-10-(4-chloro-3-fluorophenyl)-7-(4-(4,4-difluorobut-2-enoyl)-2-methylpiperazin-1-yl)-2,3-dihydro-5H-[1,4]thiazino[2,3,4-ij]quinazolin-5-one] | 93.5% | 
25 | N#CC[C@H]1CN(c2nc(=O)n3c4c(c(-c5ccc(F)cc5F)c(Cl)cc24)SCC3)CCN1C(=O)/C=C/C(F)(F)F [Example 81, 2-((2S)-4-(9-chloro-10-(2,4-difluorophenyl)-5-oxo-2,3-dihydro-5H-[1,4]thiazino[2,3,4-ij]quinazolin-7-yl)-1-((E)-4,4,4-trifluorobut-2-enoyl)piperazin-2-yl)acetonitrile] | 89% | 
